{"source": "patent US9789096B2", "about": "“Methods and compositions for selective and targeted cancer therapy” (Board of Regents of the University of Texas System, priority 2013, dated 2017)"}
{"tested_on": "H2122", "assay": "Cell viability dose-response, H2122", "type": "cell-based, human", "conditions": "Homo sapiens, NCI-H2122, 12-point dose-response starting at 50 micromolar, 3-fold increments, in duplicate; read-out: toxicity data, H2122", "method": "(§1) FIG. 6A. […] Cell viability is plotted vs. compound concentration. Compound was added to cells plated at 15% confluence in 96-well plates in RPMI-1640 media supplemented with 5% Fetal Bovine Serum and 2 mM L-Glutamine. After 4 days of incubation, ATP levels were measured using Cell Titer Glo (Promega). Data are presented as the average of 2 replicates ±SEM.\n(§2) Selectivity may be measured by the half maximal inhibitory concentration (IC50), which, as used herein, is a measure of the effectiveness of a compound in killing cells. This quantitative measure indicates how much of a particular compound is needed to kill a particular cell population by half (e.g., as indicated by the amount of ATP). […] The IC50 can be determined by constructing a dose-response curve. The lower the IC50, the higher the potency, and the greater the difference between IC50 values for different cell lines (e.g., sensitive lines vs. insensitive lines, and sensitive lines vs. normal lines) the greater the selectivity. […]\n(§3) With this information, we synthesized and tested a series of small molecules derived in conception from the oxalamide and chromone scaffold including N-acyl ureas, as shown in Tables 6-8. Each compound was tested in a 12-point dose-response study starting at 50 micromolar and decreasing in 3-fold increments to sub-nanomolar concentrations, in duplicate. Additionally, one or more additional cell line was tested in the same way.", "units": {"IC50": "µM"}}
{"smiles": "COc1ccc(CCNC(=O)C(=O)Nc2cccnc2F)cc1", "note": "[SW208133-1-A]", "IC50": "≥ 49.5"}
{"smiles": "COc1ccc(CCNC(=O)C(=O)Nc2cnccc2C)cc1", "note": "[SW208134-1-A]", "IC50": "≥ 49.5"}
{"smiles": "COc1ccc(CCNC(=O)C(=O)Nc2ccncc2)cc1", "note": "[SW208135-1-A]", "IC50": "≥ 49.5"}
{"smiles": "COc1ccc(CCNC(=O)C(=O)Nc2cnccn2)cc1", "note": "[SW208137-1-A]", "IC50": "≥ 49.5"}
{"smiles": "COc1ccc(CCNC(=O)C(=O)Nc2ccnc(C)c2)cc1", "note": "[SW208138-1-A]", "IC50": "≥ 49.5"}
{"smiles": "COc1ccc(CCNC(=O)C(=O)Nc2cncc(Cl)c2)cc1", "note": "[SW208139-1-A]", "IC50": 5.88}
{"smiles": "COc1ccc(CCNC(=O)C(=O)Nc2cncc(C)c2)cc1", "note": "[SW208140-1-A]", "IC50": 2.62}
{"smiles": "COc1ccc(CCNC(=O)C(=O)Nc2ccc(C(=O)c3ccc(O)cc3)cc2)cc1", "note": "[SW208141-1-A]", "IC50": "≥ 49.5"}
{"smiles": "COc1ccc(CCNC(=O)NC(=O)c2ccccc2)cc1", "note": "[SW208142-1-A]", "IC50": 1.09}
{"smiles": "COc1ccc(CCNC(=O)C(=O)Nc2cccnc2C)cc1", "note": "[SW208143-1-A]", "IC50": "≥ 49.5"}
{"smiles": "COc1ccc(CCNC(=O)C(=O)Nc2cc(C)cnc2Cl)cc1", "note": "[SW208144-1-A]", "IC50": "≥ 49.5"}
{"smiles": "COc1ccc(CCNC(=O)C(=O)c2ccccc2)cc1", "note": "[SW208145-1-A]", "IC50": "≥ 49.5"}
{"smiles": "COc1ccc(CCNC(=O)C(=O)Oc2ccccc2)cc1", "note": "[SW208147-1-A]", "IC50": 2.07}
{"smiles": "COc1ccc(CCNC(=O)C(=O)Oc2ccc(Cl)cc2)cc1", "note": "[SW208148-1-A]", "IC50": 7.17}
{"smiles": "COc1ccc(CCCNC(=O)C(=O)c2ccccc2)cc1", "note": "[SW208152-1-A]", "IC50": 15.2}
{"smiles": "COc1ccc(CCN(C)C(=O)C(=O)Nc2ccc(Cl)cc2)cc1", "note": "[SW208153-1-A]", "IC50": 10.5}
{"smiles": "COc1ccc(CCNC(=O)C(=O)Nc2cccc(F)n2)cc1", "note": "[SW209136-1-A]", "IC50": "≥ 49.5"}
{"tested_on": "H2122", "assay": "Cell viability dose-response, H2122", "type": "cell-based, human", "conditions": "Homo sapiens, NCI-H2122, Table 8; 12-point dose-response starting at 50 micromolar", "method": "as §1, §2, §3", "units": {"AC50": "µM"}}
{"smiles": "O=c1c(Cc2ccc(C(F)(F)F)cc2)coc2cc(OCc3cnn(-c4ccccc4)c3)ccc12", "note": "[SW209185-1]", "AC50": 0.085}
{"smiles": "O=c1c(Cc2cccc(C(F)(F)F)c2)coc2cc(OCc3cnn(-c4ccccc4)c3)ccc12", "note": "[SW209186-1]", "AC50": 0.047}
{"smiles": "O=c1c(Cc2ccc(F)cc2)coc2cc(OCc3cnn(-c4ccccc4)c3)ccc12", "note": "[SW209188-1]", "AC50": 0.086}
{"smiles": "O=c1c(Cc2ccccc2F)coc2cc(OCc3cnn(-c4ccccc4)c3)ccc12", "note": "[SW209189-1]", "AC50": 0.08}
{"smiles": "Cc1ccc(Cc2coc3cc(OCc4cnn(-c5ccccc5)c4)ccc3c2=O)cc1", "note": "[SW209190-1]", "AC50": 0.092}
{"smiles": "O=c1c(Cc2ccc(Br)cc2)coc2cc(OCc3cnn(-c4ccccc4)c3)ccc12", "note": "[SW209191-1]", "AC50": 0.087}
{"smiles": "O=c1c(Cc2ccccc2C(F)(F)F)coc2cc(OCc3cnn(-c4ccccc4)c3)ccc12", "note": "[SW209192-1]", "AC50": 0.028}
{"tested_on": "H2122", "assay": "Cell viability dose-response, H2122", "type": "cell-based, human", "conditions": "Homo sapiens, NCI-H2122, Tables 3 and 4; read-out: IC50 (uM) vs indicated non-small cell lung cancer cell line H2122", "method": "as §1, §2, §3", "units": {"IC50": "µM"}}
{"smiles": "COc1ccc2nc(NC(=O)c3ccc([C@@H](N)c4ccccc4)cc3)sc2c1", "note": "[SW208109]", "IC50": 0.067}
{"smiles": "COc1ccc2nc(NC(=O)c3ccc([C@H](N)c4ccccc4)cc3)sc2c1", "note": "[SW208110]", "IC50": 0.012}
{"smiles": "CCCOc1ccc2nc(NC(=O)c3ccc(C(=O)c4ccccc4)cc3)sc2c1", "note": "[SW208186]", "IC50": 0.107}
{"smiles": "C#CCOc1ccc2nc(NC(=O)c3ccc(C(=O)c4ccc(OC)cc4)cc3)sc2c1", "note": "[SW208187]", "IC50": 0.288}
{"tested_on": "H1819", "assay": "Cell viability dose-response, H1819", "type": "cell-based, human", "conditions": "Homo sapiens, NCI-H1819, 12-point dose-response starting at 50 micromolar, 3-fold increments, in duplicate; read-out: toxicity data, H1819", "method": "as §1, §2, §3", "units": {"IC50": "µM"}}
{"smiles": "COc1ccc(CCNC(=O)C(=O)Nc2cccnc2F)cc1", "note": "[SW208133-1-A]", "IC50": "≥ 49.5"}
{"smiles": "COc1ccc(CCNC(=O)C(=O)Nc2cnccc2C)cc1", "note": "[SW208134-1-A]", "IC50": "≥ 49.5"}
{"smiles": "COc1ccc(CCNC(=O)C(=O)Nc2ccncc2)cc1", "note": "[SW208135-1-A]", "IC50": "≥ 49.5"}
{"smiles": "COc1ccc(CCNC(=O)C(=O)Nc2cnccn2)cc1", "note": "[SW208137-1-A]", "IC50": "≥ 49.5"}
{"smiles": "COc1ccc(CCNC(=O)C(=O)Nc2ccnc(C)c2)cc1", "note": "[SW208138-1-A]", "IC50": "≥ 49.5"}
{"smiles": "COc1ccc(CCNC(=O)C(=O)Nc2cncc(Cl)c2)cc1", "note": "[SW208139-1-A]", "IC50": "≥ 49.5"}
{"smiles": "COc1ccc(CCNC(=O)C(=O)Nc2cncc(C)c2)cc1", "note": "[SW208140-1-A]", "IC50": 16.5}
{"smiles": "COc1ccc(CCNC(=O)C(=O)Nc2ccc(C(=O)c3ccc(O)cc3)cc2)cc1", "note": "[SW208141-1-A]", "IC50": "≥ 49.5"}
{"smiles": "COc1ccc(CCNC(=O)NC(=O)c2ccccc2)cc1", "note": "[SW208142-1-A]", "IC50": "≥ 49.5"}
{"smiles": "COc1ccc(CCNC(=O)C(=O)Nc2cccnc2C)cc1", "note": "[SW208143-1-A]", "IC50": "≥ 49.5"}
{"smiles": "COc1ccc(CCNC(=O)C(=O)Nc2cc(C)cnc2Cl)cc1", "note": "[SW208144-1-A]", "IC50": "≥ 49.5"}
{"smiles": "COc1ccc(CCNC(=O)C(=O)c2ccccc2)cc1", "note": "[SW208145-1-A]", "IC50": "≥ 49.5"}
{"smiles": "COc1ccc(CCNC(=O)C(=O)Oc2ccccc2)cc1", "note": "[SW208147-1-A]", "IC50": "≥ 49.5"}
{"smiles": "COc1ccc(CCNC(=O)C(=O)Oc2ccc(Cl)cc2)cc1", "note": "[SW208148-1-A]", "IC50": "≥ 49.5"}
{"smiles": "COc1ccc(CCCNC(=O)C(=O)c2ccccc2)cc1", "note": "[SW208152-1-A]", "IC50": "≥ 49.5"}
{"smiles": "COc1ccc(CCN(C)C(=O)C(=O)Nc2ccc(Cl)cc2)cc1", "note": "[SW208153-1-A]", "IC50": "≥ 49.5"}
{"smiles": "COc1ccc(CCNC(=O)C(=O)Nc2cccc(F)n2)cc1", "note": "[SW209136-1-A]", "IC50": "≥ 49.5"}
{"tested_on": "H1819", "assay": "Cell viability dose-response, H1819", "type": "cell-based, human", "conditions": "Homo sapiens, NCI-H1819, Tables 3 and 4; read-out: IC50 (uM) vs indicated non-small cell lung cancer cell line H1819", "method": "as §1, §2, §3", "units": {"IC50": "µM"}}
{"smiles": "COc1ccc2nc(NC(=O)c3ccc([C@@H](N)c4ccccc4)cc3)sc2c1", "note": "[SW208109]", "IC50": 7.75}
{"smiles": "COc1ccc2nc(NC(=O)c3ccc([C@H](N)c4ccccc4)cc3)sc2c1", "note": "[SW208110]", "IC50": 5.97}
{"smiles": "CCCOc1ccc2nc(NC(=O)c3ccc(C(=O)c4ccccc4)cc3)sc2c1", "note": "[SW208186]", "IC50": 13}
{"smiles": "C#CCOc1ccc2nc(NC(=O)c3ccc(C(=O)c4ccc(OC)cc4)cc3)sc2c1", "note": "[SW208187]", "IC50": 0.697}
{"tested_on": "H1819", "assay": "Cell viability dose-response, H1819", "type": "cell-based, human", "conditions": "Homo sapiens, NCI-H1819; Table 8; 12-point dose-response starting at 50 micromolar", "method": "as §1, §2, §3", "units": {"AC50": "µM"}}
{"smiles": "O=c1c(Cc2ccc(C(F)(F)F)cc2)coc2cc(OCc3cnn(-c4ccccc4)c3)ccc12", "note": "[SW209185-1]", "AC50": 28.6}
{"smiles": "O=c1c(Cc2cccc(C(F)(F)F)c2)coc2cc(OCc3cnn(-c4ccccc4)c3)ccc12", "note": "[SW209186-1]", "AC50": 49.5}
{"smiles": "O=c1c(Cc2ccc(F)cc2)coc2cc(OCc3cnn(-c4ccccc4)c3)ccc12", "note": "[SW209188-1]", "AC50": 49.5}
{"smiles": "O=c1c(Cc2ccccc2F)coc2cc(OCc3cnn(-c4ccccc4)c3)ccc12", "note": "[SW209189-1]", "AC50": 49.5}
{"smiles": "Cc1ccc(Cc2coc3cc(OCc4cnn(-c5ccccc5)c4)ccc3c2=O)cc1", "note": "[SW209190-1]", "AC50": 49.5}
{"smiles": "O=c1c(Cc2ccc(Br)cc2)coc2cc(OCc3cnn(-c4ccccc4)c3)ccc12", "note": "[SW209191-1]", "AC50": 49.5}
{"smiles": "O=c1c(Cc2ccccc2C(F)(F)F)coc2cc(OCc3cnn(-c4ccccc4)c3)ccc12", "note": "[SW209192-1]", "AC50": 49.5}
